In test [1] the target is T1, Tissue alpha-L-fucosidase (Homo sapiens, UniProt P04066).
T1 sequence (P04066 whole entry): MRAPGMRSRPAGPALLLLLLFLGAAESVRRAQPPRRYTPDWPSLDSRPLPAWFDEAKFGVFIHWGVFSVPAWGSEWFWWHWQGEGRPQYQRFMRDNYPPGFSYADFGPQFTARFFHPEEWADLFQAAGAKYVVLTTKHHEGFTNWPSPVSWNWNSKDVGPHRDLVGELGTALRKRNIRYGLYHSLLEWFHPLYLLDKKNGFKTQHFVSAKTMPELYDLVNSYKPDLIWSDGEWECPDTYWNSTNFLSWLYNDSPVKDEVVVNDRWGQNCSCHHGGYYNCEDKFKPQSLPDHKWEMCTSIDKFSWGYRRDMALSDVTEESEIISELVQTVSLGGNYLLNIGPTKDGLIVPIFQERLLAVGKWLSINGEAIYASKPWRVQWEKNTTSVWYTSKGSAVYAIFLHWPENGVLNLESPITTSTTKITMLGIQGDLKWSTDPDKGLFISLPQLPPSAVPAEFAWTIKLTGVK
The test is described as follows: Inhibition of human liver alpha-L-fucosidase.

A further test concerns the target T2, Beta-xylosidase (Thermoanaerobacterium saccharolyticum, UniProt P36906).
T2 sequence (P36906 whole entry): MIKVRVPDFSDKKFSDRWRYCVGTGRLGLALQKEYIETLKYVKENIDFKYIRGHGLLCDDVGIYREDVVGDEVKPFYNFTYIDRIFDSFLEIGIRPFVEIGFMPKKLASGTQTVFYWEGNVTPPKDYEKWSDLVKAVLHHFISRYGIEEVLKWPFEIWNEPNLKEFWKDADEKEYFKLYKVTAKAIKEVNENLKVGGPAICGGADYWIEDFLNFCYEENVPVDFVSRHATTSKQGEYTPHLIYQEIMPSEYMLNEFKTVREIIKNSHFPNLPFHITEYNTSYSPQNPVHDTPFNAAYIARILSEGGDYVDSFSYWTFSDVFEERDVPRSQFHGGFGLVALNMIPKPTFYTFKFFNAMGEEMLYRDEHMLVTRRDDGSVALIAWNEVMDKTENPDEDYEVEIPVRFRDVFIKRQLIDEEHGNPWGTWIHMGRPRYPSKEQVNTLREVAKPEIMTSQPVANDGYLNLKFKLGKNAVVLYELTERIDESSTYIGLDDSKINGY
Kind of test: Inhibition of Thermoanaerobacterium saccharolyticum beta-xylosidase.

Molecules are shown by their SMILES. pKi: −log10 of the molar value.

As usually defined, the pKi is the Ki on a negative log10 scale, so that one unit is a factor of ten. A high value points to a low Ki. Take `C[C@H]1[C@@H](O)[C@@H](O)[C@H](O)CN1CCCCCCNS(=O)(=O)c1cccc2c(N(C)C)cccc12`: the pKi in test [1] is 6.30.
In turn, `CN(C)c1cccc2c(S(=O)(=O)NCCCCCCN3C[C@@H](O)[C@H](O)[C@@H](O)C3)cccc12` had a pKi at Beta-xylosidase of 5.12.
On the same count and under the same terms, next, `O[C@H]1[C@H](O)CNC[C@@H]1O` [DIDEOXYIMINOXYLITOL]: 3.69.

The record behind these values is ChEMBL document CHEMBL1146112, “Fluorescent glycosidase inhibiting 1,5-dideoxy-1,5-iminoalditols” (Bioorg Med Chem Lett, 2006).
